Read-outs that look alike come from different tables or passages of the source.
Assays:
Experiment in all cases: Kinase panel study
Format in all cases: biochemical
FRAP1 (mTOR) = target: T1, FRAP1 (mTOR) (Homo sapiens, UniProt P42345); conditions: for inhibition at 1 µM: 1000nM
T1 construct: purchased Thermo Fisher Scientific
Procedure: (§1) The Kinase panel study was entirely provided by Thermo Fisher Scientific using the two lead compounds MW01 and MW05 as well as their derivatives (MW01-E06, MW01-E10, MW01-E14, MW01-E18, MW05-E2, MW05-E3, MW05-E9 and MW05-E10. The experiment was performed using the ZLyte or Adapta protocol according to manufacturer standard operating procedures.
(§2) Based on their similar effects in our screen and molecular analysis, MW01 and MW05 were used in comparative target deconvolution studies seeking common targets despite their distinct structures. To eliminate previously identified kinases regulating NF-κB activity, such as IKK, as possible targets of MW01 and MW05, an in vitro kinase inhibition assay was performed. […] We next investigated if any of the shared kinase targets of MW01 and MW05 play a role in genotoxic stress-induced NF-κB activity and established several criteria to narrow down pathway-relevant targets. Considering the similar NF-κB inhibition phenotypes of both compounds, we hypothesized first that the target should be shared by both lead compounds. Second, based on the CaCo2 recovery values and experimental treatment concentration of 10 µM), the putative target kinase should have a low IC50 of, at most, 2000 nM for both lead compounds in the in vitro kinase panel (Fig. 2A). Based on these criteria alone, we arrived at a relatively short list of potential targets for further analysis, leaving only PIK3CG, PIK3C2G, and CLK2 (Fig. 2B). IC50 values for PIK3C2G by both lead compounds agreed best with these criteria, but RNA expression analysis indicates high tissue specificity as well as lack of expression of this kinase in our U2-OS model cell line, which we then eliminated from further analysis (Uhlén et al., 2015). […] Table 6: Percentage of inhibition of the indicated kinases by MW01 or MW05 at either 10 µM or 1 µM. n.d. = not determined.

PI4KB (PI4K beta) = target: T2, PI4KB (PI4K beta) (Homo sapiens, UniProt Q9UBF8); conditions: for inhibition at 1 µM: 1000nM
T2 construct: purchased Thermo Fisher Scientific
Procedure: as §1, §2

AKT3 (PKB gamma) = target: T3, AKT3 (PKB gamma) (Homo sapiens, UniProt Q9Y243); conditions: for inhibition at 1 µM: 1000nM
T3 construct: purchased Thermo Fisher Scientific
Procedure: as §1, §2

ALK = target: T4, ALK (Homo sapiens, UniProt Q9UM73); conditions: for inhibition at 1 µM: 1000nM
T4 construct: purchased Thermo Fisher Scientific
Procedure: as §1, §2

DYRK1A = target: T5, DYRK1A (Homo sapiens, UniProt Q13627); conditions: for inhibition at 1 µM: 1000nM
T5 construct: purchased Thermo Fisher Scientific
Procedure: as §1, §2

IKBKB (IKK beta) = target: T6, IKBKB (IKK beta) (Homo sapiens, UniProt O14920); conditions: for inhibition at 1 µM: 1000nM
T6 construct: purchased Thermo Fisher Scientific
T6 sequence (O14920 1-756): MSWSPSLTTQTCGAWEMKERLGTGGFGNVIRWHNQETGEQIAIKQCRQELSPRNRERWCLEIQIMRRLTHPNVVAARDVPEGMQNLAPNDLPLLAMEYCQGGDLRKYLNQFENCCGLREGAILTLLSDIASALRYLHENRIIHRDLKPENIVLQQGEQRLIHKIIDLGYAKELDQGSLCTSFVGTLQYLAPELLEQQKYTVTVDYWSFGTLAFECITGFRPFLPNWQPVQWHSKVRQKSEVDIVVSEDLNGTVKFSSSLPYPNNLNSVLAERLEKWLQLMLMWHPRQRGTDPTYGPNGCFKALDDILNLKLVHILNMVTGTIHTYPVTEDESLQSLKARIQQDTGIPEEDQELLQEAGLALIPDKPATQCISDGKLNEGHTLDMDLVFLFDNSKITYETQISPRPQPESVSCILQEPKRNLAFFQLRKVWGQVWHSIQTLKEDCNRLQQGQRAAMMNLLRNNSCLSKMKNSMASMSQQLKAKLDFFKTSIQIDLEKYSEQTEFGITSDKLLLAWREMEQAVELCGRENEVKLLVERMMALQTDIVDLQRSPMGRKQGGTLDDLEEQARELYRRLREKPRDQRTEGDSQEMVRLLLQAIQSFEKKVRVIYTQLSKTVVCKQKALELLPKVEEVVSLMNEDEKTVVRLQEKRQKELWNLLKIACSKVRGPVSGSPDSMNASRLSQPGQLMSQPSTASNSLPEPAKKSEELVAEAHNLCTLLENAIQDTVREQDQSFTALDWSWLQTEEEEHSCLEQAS
Procedure: as §1, §2

PIK3CG (p11 0 gamma) = target: T7, PIK3CG (p11 0 gamma) (Homo sapiens, UniProt P48736); conditions: for inhibition at 1 µM: 1000nM; for IC50: in vitro kinase panel, criterion of at most 2000 nM
T7 construct: purchased Thermo Fisher Scientific
Procedure: as §1, §2

FLT3 = target: T8, FLT3 (Homo sapiens, UniProt P36888); conditions: for inhibition at 1 µM: 1000nM
T8 construct: purchased Thermo Fisher Scientific
T8 sequence (P36888 27-993): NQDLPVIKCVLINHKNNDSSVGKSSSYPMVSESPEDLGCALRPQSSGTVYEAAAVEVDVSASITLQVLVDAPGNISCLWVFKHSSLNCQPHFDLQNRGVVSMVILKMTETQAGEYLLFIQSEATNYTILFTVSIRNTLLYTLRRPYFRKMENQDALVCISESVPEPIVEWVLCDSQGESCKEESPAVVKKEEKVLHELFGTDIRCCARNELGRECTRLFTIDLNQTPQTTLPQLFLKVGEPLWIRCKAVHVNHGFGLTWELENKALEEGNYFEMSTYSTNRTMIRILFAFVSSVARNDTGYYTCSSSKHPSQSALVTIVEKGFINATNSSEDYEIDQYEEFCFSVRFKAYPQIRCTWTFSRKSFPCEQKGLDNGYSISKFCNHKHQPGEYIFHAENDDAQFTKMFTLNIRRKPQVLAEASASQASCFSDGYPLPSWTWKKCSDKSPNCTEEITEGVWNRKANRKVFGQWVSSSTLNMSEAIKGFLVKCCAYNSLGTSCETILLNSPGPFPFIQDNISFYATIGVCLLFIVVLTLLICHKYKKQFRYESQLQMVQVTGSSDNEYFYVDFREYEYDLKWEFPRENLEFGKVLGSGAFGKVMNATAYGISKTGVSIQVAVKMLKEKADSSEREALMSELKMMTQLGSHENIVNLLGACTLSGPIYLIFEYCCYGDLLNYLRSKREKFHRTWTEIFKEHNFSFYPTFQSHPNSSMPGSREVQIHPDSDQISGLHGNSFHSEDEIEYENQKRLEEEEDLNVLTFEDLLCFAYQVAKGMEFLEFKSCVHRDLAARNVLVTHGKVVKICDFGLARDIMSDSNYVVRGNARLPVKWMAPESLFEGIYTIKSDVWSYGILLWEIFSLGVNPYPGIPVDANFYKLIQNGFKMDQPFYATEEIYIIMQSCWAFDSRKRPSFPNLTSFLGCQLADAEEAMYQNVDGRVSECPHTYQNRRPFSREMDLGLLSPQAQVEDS
Procedure: as §1, §2

PIK3C2A (PI3K-C2 alpha) = target: T9, PIK3C2A (PI3K-C2 alpha) (Homo sapiens, UniProt O00443); conditions: for inhibition at 1 µM: 1000nM
T9 construct: purchased Thermo Fisher Scientific
Procedure: as §1, §2

[1] = FRAP1 (mTOR), compound at 10µM, read-out: % of Inhibition
[2] = PI4KB (PI4K beta), compound at 10µM, read-out: % of Inhibition
[3] = AKT3 (PKB gamma), compound at 10µM, read-out: % of Inhibition
[4] = ALK, compound at 10µM, read-out: % of Inhibition
[5] = DYRK1A, compound at 10µM, read-out: % of Inhibition
[6] = IKBKB (IKK beta), compound at 10µM, read-out: % of Inhibition
[7] = PIK3CG, compound at 10µM, read-out: % of Inhibition
[8] = FLT3, compound at 10µM, read-out: % of Inhibition
[9] = PIK3C2A (PI3K-C2 alpha), compound at 10µM, read-out: % of Inhibition
[10] = read-out: Percentage of inhibition
[11] = 10000nM, read-out: Percentage of inhibition

T3 sequence (Q9Y243 whole entry): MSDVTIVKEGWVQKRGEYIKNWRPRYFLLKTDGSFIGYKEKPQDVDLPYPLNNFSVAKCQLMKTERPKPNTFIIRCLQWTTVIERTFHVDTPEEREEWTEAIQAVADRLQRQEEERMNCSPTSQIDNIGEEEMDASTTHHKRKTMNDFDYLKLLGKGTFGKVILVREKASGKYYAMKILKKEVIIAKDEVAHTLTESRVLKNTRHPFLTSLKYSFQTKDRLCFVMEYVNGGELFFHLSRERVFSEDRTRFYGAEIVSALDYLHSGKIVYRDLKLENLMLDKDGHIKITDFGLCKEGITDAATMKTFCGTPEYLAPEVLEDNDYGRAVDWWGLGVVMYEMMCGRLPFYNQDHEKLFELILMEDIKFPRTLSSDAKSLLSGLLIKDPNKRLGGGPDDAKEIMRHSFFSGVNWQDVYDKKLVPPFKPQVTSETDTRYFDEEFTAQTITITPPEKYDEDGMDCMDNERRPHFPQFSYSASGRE
T9 sequence (O00443 whole entry): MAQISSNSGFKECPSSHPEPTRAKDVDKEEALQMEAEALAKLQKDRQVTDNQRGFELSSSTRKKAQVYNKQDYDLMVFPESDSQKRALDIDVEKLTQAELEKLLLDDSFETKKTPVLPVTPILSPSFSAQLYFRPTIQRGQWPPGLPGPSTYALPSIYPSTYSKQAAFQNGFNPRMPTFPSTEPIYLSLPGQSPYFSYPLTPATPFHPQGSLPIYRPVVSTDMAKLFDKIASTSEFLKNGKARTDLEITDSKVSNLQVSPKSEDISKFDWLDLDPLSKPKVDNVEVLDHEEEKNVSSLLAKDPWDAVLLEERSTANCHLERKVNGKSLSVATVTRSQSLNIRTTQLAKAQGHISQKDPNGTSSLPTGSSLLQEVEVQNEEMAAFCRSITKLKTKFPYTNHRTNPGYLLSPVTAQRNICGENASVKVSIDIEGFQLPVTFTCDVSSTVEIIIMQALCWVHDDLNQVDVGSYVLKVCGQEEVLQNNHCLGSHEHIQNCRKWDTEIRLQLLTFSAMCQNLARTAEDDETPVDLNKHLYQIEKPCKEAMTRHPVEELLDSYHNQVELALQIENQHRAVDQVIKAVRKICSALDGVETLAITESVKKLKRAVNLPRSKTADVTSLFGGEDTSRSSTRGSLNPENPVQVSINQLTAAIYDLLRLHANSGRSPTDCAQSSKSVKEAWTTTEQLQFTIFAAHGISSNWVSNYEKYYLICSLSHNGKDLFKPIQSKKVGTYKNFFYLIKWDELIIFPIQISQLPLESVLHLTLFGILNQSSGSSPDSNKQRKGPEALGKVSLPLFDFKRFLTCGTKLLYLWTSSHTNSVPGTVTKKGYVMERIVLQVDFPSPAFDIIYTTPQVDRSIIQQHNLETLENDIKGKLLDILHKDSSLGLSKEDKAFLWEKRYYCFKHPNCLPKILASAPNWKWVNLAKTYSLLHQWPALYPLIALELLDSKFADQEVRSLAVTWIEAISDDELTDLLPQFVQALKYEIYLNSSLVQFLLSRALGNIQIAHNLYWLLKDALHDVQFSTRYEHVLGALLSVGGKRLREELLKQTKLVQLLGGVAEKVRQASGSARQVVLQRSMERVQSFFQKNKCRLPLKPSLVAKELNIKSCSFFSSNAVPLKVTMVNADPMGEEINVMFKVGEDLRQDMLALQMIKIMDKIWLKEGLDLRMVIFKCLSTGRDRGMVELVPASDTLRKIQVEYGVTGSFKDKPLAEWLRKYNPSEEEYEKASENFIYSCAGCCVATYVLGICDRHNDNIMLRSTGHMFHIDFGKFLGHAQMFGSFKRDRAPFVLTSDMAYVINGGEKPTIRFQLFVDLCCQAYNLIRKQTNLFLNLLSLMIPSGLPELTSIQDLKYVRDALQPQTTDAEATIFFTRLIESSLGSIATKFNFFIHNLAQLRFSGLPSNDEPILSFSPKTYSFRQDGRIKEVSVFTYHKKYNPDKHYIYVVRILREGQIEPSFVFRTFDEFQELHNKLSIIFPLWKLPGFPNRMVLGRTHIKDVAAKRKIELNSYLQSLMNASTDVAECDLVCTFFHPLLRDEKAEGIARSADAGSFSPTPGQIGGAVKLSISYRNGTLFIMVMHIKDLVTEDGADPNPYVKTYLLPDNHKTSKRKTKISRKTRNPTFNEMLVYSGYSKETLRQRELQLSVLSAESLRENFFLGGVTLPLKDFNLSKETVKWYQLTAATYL
T2 sequence (Q9UBF8 whole entry): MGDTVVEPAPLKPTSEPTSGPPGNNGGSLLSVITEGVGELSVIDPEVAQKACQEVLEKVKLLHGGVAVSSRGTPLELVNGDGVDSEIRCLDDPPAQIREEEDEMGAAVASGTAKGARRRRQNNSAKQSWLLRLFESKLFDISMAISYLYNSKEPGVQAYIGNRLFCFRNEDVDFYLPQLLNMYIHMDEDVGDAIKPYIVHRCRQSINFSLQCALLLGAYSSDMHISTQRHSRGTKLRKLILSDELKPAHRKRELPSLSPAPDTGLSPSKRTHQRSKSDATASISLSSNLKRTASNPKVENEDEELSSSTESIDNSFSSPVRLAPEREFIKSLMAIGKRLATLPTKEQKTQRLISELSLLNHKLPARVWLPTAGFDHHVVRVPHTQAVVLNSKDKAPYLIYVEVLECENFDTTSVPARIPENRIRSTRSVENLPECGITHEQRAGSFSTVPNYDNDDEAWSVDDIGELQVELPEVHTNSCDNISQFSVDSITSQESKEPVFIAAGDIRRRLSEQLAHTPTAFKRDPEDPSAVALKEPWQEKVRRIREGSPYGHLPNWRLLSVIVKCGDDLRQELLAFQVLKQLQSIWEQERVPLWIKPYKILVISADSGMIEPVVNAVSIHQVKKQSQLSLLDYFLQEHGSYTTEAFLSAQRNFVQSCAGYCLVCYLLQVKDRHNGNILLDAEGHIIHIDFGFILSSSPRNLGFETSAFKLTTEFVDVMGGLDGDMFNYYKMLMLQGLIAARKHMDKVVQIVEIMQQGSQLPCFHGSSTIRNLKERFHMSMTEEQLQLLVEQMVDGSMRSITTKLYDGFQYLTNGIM
T4 sequence (Q9UM73 19-1620): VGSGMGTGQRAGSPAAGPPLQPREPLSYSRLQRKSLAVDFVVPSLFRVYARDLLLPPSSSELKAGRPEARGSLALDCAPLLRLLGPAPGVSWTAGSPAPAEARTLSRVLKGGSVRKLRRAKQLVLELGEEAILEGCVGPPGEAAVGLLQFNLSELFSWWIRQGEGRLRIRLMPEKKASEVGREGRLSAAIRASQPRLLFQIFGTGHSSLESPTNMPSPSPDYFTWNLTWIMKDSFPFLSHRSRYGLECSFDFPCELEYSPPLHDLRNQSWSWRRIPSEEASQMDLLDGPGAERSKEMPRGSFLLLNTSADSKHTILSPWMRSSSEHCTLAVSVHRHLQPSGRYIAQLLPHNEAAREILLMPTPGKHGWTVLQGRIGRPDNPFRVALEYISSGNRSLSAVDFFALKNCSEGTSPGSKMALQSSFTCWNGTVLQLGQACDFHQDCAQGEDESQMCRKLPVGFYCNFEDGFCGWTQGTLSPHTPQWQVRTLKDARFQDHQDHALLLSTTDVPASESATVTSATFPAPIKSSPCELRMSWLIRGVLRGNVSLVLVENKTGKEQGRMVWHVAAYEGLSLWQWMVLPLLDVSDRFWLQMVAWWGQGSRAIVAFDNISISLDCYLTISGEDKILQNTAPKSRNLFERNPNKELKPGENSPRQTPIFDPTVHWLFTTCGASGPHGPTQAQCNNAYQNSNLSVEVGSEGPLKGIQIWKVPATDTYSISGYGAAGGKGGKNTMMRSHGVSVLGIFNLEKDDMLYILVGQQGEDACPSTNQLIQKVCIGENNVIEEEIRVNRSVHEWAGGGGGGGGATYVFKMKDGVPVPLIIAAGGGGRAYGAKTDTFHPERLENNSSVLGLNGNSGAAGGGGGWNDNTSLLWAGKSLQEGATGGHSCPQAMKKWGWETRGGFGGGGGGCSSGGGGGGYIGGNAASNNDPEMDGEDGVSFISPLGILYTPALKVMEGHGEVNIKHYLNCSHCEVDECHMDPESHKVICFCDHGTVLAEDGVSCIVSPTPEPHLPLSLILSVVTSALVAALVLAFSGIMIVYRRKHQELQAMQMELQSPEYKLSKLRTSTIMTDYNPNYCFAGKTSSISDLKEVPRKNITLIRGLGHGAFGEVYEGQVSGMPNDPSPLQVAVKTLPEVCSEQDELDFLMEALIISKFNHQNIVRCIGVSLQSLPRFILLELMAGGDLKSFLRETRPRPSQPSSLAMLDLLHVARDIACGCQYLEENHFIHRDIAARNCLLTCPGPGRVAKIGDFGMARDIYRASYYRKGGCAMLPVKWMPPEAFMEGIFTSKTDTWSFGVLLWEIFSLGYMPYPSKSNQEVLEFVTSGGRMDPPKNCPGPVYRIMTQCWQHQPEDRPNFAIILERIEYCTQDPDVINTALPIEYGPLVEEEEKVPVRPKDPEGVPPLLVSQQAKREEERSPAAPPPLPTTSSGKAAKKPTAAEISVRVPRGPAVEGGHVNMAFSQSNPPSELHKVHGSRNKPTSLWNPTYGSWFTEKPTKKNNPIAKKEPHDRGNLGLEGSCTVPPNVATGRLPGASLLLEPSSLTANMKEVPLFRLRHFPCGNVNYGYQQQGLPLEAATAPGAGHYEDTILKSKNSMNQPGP

Row | SMILES | inhibition at 10 µM (FRAP1 (mTOR); [1]) | inhibition at 10 µM (PI4KB (PI4K beta); [2]) | inhibition at 10 µM (AKT3 (PKB gamma); [3]) | inhibition at 10 µM (ALK; [4]) | inhibition at 10 µM (DYRK1A; [5]) | inhibition at 10 µM (IKBKB (IKK beta); [6]) | inhibition at 10 µM (PIK3CG (p11 0 gamma); [7]) | inhibition at 10 µM (FLT3; [8]) | inhibition at 10 µM (PIK3C2A (PI3K-C2 alpha); [9]) | inhibition at 1 µM (FRAP1 (mTOR); [10]) | inhibition at 10 µM (FRAP1 (mTOR); [11]) | inhibition at 1 µM (PI4KB (PI4K beta); [10]) | inhibition at 10 µM (PI4KB (PI4K beta); [11]) | inhibition at 1 µM (AKT3 (PKB gamma); [10]) | inhibition at 10 µM (AKT3 (PKB gamma); [11]) | inhibition at 1 µM (ALK; [10]) | inhibition at 10 µM (ALK; [11]) | inhibition at 1 µM (DYRK1A; [10]) | inhibition at 10 µM (DYRK1A; [11]) | inhibition at 1 µM (IKBKB (IKK beta); [10]) | also measured
1 | O=c1c2cnccc2c2nccc3c4cc(O)ccc4n1c32 [MW01-E18, 5-hydroxy-1,11,16-triazapentacyclo[10.7.1.0^2,^7.0^8,^20.0^13,^18]icosa-2(7),3,5,8(20),9,11,13(18),14,16-nonaen-19-one] | 43% | 81% | 19% | 35% | 65% | 16% | 99% | 65% | 44% |  |  |  |  |  |  |  |  |  |  |  | 
2 | COc1ccc2nc3c(cc2c1)c(N)nn3C(=O)c1cccc(N(C)C)c1 [MW05-E2, 1-[3-(dimethylamino)benzoyl]-6-methoxy-1H-pyrazolo[3,4-b]quinolin-3-amine] | 5% | 9% | 11% | 24% | 53% | 12% | 2% | 17% | 10% |  |  |  |  |  |  |  |  |  |  |  | 
3 | COc1ccc2c(c1OC)c(=O)n1c3ccc(O)cc3c3ccnc2c31 [MW01, 5-Hydroxy-10,11-dimethoxy-9H-benzo[c]indolo[3,2,1-ij][1,5]naphthyridin-9-one] |  |  |  |  |  |  |  |  |  | 31% | 80% | 94% | 100% | 7% | 18% | 18% | 40% | 80% | 90% | 4% | IC50 (FRAP1 (mTOR); in vitro kinase panel, sub-2000 nM criterion): ≥ 2000 nM; inhibition at 10 µM (IKBKB (IKK beta); [11]): 12%; inhibition at 1 µM (PIK3CG (p11 0 gamma); [10]): 81%; inhibition at 10 µM (PIK3CG (p11 0 gamma); [11]): 88%; IC50 (PIK3CG (p11 0 gamma)): ≤ 2000 nM; inhibition at 1 µM (FLT3; [10]): 61%; inhibition at 10 µM (FLT3; [11]): 86%; inhibition at 1 µM (PIK3C2A (PI3K-C2 alpha); [10]): 26%; inhibition at 10 µM (PIK3C2A (PI3K-C2 alpha); [11]): 43%
4 | COc1ccc2cc3c(N)nn(C(=O)c4cccc(N(C)C)c4)c3nc2c1 [MW05, (3-Amino-7-methoxypyrazolo[3,4-b]quinolin-1-yl)-[3-(dimethylamino)phenyl]methanone] |  |  |  |  |  |  |  |  |  | 31% | 81% | -2% | 43% | 4% | -6% | 0% | -2% | 22% | 60% | 6% | inhibition at 10 µM (IKBKB (IKK beta); [11]): 5%; inhibition at 1 µM (PIK3CG (p11 0 gamma); [10]): 20%; inhibition at 10 µM (PIK3CG (p11 0 gamma); [11]): 70%; IC50 (PIK3CG (p11 0 gamma)): ≤ 2000 nM; inhibition at 1 µM (FLT3; [10]): 2%; inhibition at 10 µM (FLT3; [11]): 6%; inhibition at 1 µM (PIK3C2A (PI3K-C2 alpha); [10]): -5%; inhibition at 10 µM (PIK3C2A (PI3K-C2 alpha); [11]): 1%
5 | O=c1c2cc(O)ccc2c2nccc3c4cc(O)ccc4n1c32 [MW01-E10, 5,16-dihydroxy-1,11-diazapentacyclo[10.7.1.0^2,^7.0^8,^20.0^13,^18]icosa-2(7),3,5,8(20),9,11,13(18),14,16-nonaen-19-one] | 42% | 90% | 24% | 75% | 56% | 31% | 93% | 27% | 31% |  |  |  |  |  |  |  |  |  |  |  | 
6 | COc1ccc2c(c1)c1ccnc3c4nc(OC)ccc4c(=O)n2c13 [MW01-E6, 5,15-dimethoxy-1,11,14-triazapentacyclo[10.7.1,0^2,7.0^8,^20.0^13,^18]icosa-2(7),3,5,8(20),9,11,13(18),14,16-nonaen-19-one] | 12% | 12% | 12% | 19% | 14% | 10% | -1% | 31% | 26% |  |  |  |  |  |  |  |  |  |  |  | 
